# Measured values: paper PMC9081362, “Novel MDM2 Inhibitor XR-2 Exerts Potent Anti-Tumor Efficacy and Overcomes Enzalutamide Resistance in Prostate Cancer” (Frontiers in Pharmacology, 2022)
# Biological target: MDM2 (Homo sapiens, UniProt Q00987)
# Assay: HTRF MDM2-p53 binding (displacement) assay
# Sequence of MDM2 (Q00987 whole entry): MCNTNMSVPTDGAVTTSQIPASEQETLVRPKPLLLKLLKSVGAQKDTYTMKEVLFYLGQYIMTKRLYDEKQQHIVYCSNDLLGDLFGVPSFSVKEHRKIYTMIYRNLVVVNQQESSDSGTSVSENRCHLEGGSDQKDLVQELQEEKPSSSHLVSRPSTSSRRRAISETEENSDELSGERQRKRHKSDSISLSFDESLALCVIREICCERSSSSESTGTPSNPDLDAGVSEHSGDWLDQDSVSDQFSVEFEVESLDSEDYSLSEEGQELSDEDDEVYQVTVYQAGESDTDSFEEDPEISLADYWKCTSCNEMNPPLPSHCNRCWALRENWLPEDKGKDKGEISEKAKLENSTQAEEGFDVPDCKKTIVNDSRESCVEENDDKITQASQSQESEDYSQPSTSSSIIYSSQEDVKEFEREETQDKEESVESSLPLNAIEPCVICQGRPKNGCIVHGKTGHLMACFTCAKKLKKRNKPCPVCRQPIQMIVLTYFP
# Sequence of MDM2 (P04637 whole entry partner): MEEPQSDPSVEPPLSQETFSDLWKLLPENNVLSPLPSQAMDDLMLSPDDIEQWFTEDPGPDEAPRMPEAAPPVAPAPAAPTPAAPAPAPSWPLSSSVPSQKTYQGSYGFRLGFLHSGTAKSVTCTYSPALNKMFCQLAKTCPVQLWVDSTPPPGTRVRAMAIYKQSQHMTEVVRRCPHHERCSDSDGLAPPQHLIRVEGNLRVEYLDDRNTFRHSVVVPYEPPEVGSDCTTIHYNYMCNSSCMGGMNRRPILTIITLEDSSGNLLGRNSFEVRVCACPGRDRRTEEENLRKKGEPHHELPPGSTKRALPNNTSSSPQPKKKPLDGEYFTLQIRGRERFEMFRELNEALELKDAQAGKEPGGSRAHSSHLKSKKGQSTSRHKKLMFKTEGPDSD
smiles,measurement,value
"COCCOCCOCCOC(=O)N1[C@@H](CC(C)(C)C)[C@@]2(C(=O)Nc3cc(Cl)ccc32)[C@@H](c2cccc(Cl)c2F)[C@@H]1C(=O)Nc1ccc(C(N)=O)cc1OC [XR-2, 2-(2-(2-methoxyethoxy)ethoxy)ethyl-(2′S,3R,4′S,5′R)-5'-((4-carbamoyl-2-methoxyphenyl)carbamoyl)-6-chloro-4'-(3-chloro-2-fluorophenyl)-2′-neopentyl-2-oxospiro[indoline-3,3′-pyrrolidine]-1′-carboxylate]",HTRF MDM2-p53 binding (displacement) assay,The homogeneous time-resolved fluorescence binding assay proved that XR-2 directly inhibited MDM2–p53 interaction
